The record followed here is patent US11332459B2 (TEIJIN PHARMA LIMITED, priority 2017, dated 2022).

Structures are written as SMILES.

This assay deals with T1, human TRPC6 (Homo sapiens, UniProt Q9Y210).
T1 construct: expressed in transfected cells
T1 sequence (Q9Y210 1-931): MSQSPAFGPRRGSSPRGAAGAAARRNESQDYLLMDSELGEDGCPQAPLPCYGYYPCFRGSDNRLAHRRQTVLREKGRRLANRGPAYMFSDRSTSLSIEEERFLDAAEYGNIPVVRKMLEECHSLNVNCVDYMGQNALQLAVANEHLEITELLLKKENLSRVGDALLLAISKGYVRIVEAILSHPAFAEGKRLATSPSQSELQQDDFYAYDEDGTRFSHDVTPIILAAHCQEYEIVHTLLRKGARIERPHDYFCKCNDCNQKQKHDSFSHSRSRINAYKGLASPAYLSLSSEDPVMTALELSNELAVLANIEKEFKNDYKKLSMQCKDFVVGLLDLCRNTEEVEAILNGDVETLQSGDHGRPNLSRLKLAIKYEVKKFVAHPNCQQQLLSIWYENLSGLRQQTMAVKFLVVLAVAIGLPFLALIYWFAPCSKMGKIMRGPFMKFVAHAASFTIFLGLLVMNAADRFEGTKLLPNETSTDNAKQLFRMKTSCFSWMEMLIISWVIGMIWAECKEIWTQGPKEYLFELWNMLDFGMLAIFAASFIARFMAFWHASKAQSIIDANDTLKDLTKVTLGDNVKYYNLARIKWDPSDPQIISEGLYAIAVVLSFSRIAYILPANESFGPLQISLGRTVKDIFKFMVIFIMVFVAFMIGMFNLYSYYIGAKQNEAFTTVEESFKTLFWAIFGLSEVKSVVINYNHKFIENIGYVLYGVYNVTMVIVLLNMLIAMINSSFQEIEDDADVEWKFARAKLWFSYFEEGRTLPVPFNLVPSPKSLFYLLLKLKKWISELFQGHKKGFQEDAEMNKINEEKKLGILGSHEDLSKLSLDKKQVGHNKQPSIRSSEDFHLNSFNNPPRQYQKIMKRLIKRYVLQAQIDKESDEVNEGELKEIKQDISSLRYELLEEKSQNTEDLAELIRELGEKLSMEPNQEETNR
Put plainly: TRPC6 calcium flux assay (FLIPR, OAG-stimulated calcium influx). The class given is cell-based. Conditions: HEK293 cells stably transfected with human TRPC6, read-out: hTRPC6 Potency. The procedure, abridged: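 HEK293 cells stably expressing human TRPC6, loaded with calcium dye 90–120 min at RT, then given compound for 25 min before OAG (50 uM final, 0.5% DMSO) in HEPES buffer pH 7.2 with 2 mM CaCl2. Background-subtracted FLIPR peak over 180 s normalized to OAG vs buffer; IC50 from dose plot.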
For orientation: Calcium flux is commonly read through the fluorescence of an indicator in the cells.
Consider `CN[C@H]1CCCN(c2nc3ccccc3n2Cc2ccc(F)cn2)C1` [Example 253, (3S)-1-(1-((5-fluoro-2-pyridinyl)methyl)-1H-benzimidazol-2-yl)-N-methyl-3-piperidinamine], for which the IC50 came to 406 nM.

For `CN[C@H]1CCCN(c2nc3ccccc3n2Cc2ccc(Cl)cn2)C1` [Example 254, (3S)-1-(1-((5-chloro-2-pyridinyl)methyl)-1H-benzimidazol-2-yl)-N-methyl-3-piperidinamine], the IC50 was determined as 73.9 nM.

Consider `CN[C@H]1CCCN(c2nc3ccccc3n2[C@H](C)c2ccc(C#N)cn2)C1` [Example 255, 6-((1R)-1-(2-((3S)-3-(methylamino)-1-piperidinyl)-1H-benzimidazol-1-yl)ethyl)-3-pyridinecarbonitrile], for which the IC50 came to 101 nM.

Consider `CN[C@H]1CCCN(c2nc3ccccc3n2[C@@H](C)c2ccc(C#N)cn2)C1` [Example 256, 6-((1S)-1-(2-((3S)-3-(methylamino)-1-piperidinyl)-1H-benzimidazol-1-yl)ethyl)-3-pyridinecarbonitrile], for which the IC50 was 19.4 nM.

As to `N[C@@H]1CN(c2nc3cc(F)cc(F)c3n2Cc2ncc(Cl)cn2)CC[C@H]1F` [Example 257, (3R,4R)-1-(1-((5-chloro-2-pyrimidinyl)methyl)-5,7-difluoro-1H-benzimidazol-2-yl)-4-fluoro-3-piperidinamine], the IC50 turned out to be 52.4 nM.

With `N[C@@H]1CN(c2nc3c(F)cc(F)cc3n2Cc2ncc(Cl)cn2)CC[C@H]1F` [Example 258, (3R,4R)-1-(1-((5-chloro-2-pyrimidinyl)methyl)-4,6-difluoro-1H-benzimidazol-2-yl)-4-fluoro-3-piperidinamine], the IC50 worked out at 0.288 nM.

For the compound `Cn1ncc2c(Cn3c(N4CC[C@@H](F)[C@H](N)C4)nc4cc(F)c(F)cc43)cccc21` [Example 259, (3R,4R)-1-(5,6-difluoro-1-((1-methyl-1H-indazol-4-yl)methyl)-1H-benzimidazol-2-yl)-4-fluoro-3-piperidinamine], the IC50 worked out at 1430 nM.

Regarding `N[C@@H]1CN(c2nc3cc(F)c(F)cc3n2Cc2cccc3ncccc23)CC[C@H]1F` [Example 260, (3R,4R)-1-(5,6-difluoro-1-(5-quinolinylmethyl)-1H-benzimidazol-2-yl)-4-fluoro-3-piperidinamine], the IC50 worked out at 376 nM.

As for `C[C@H](c1cccc2cccnc12)n1c(N2CC[C@@H](F)[C@H](N)C2)nc2cc(F)c(F)cc21` [Example 261, (3R,4R)-1-(5,6-difluoro-1-((1R)-1-(8-quinolinyl)ethyl)-1H-benzimidazol-2-yl)-4-fluoro-3-piperidinamine], the IC50 was > 3750 nM.

Regarding `C[C@@H](c1cccc2cccnc12)n1c(N2CC[C@@H](F)[C@H](N)C2)nc2cc(F)c(F)cc21` [Example 262, (3R,4R)-1-(5,6-difluoro-1-((1S)-1-(8-quinolinyl)ethyl)-1H-benzimidazol-2-yl)-4-fluoro-3-piperidinamine], the IC50 is 280 nM.

For the compound `N[C@@H]1CN(c2nc3cc(F)c(F)cc3n2Cc2cc(-c3cccc(Cl)c3)no2)CC[C@H]1F` [Example 263, (3R,4R)-1-(1-((3-(3-chlorophenyl)-1,2-oxazol-5-yl)methyl)-5,6-difluoro-1H-benzimidazol-2-yl)-4-fluoro-3-piperidinamine], the IC50 was determined as 765 nM.

`Cn1ncc2cccc(Cn3c(N4CC[C@@H](F)[C@H](N)C4)nc4cc(F)c(F)cc43)c21` [Example 264, (3R,4R)-1-(5,6-difluoro-1-((1-methyl-1H-indazol-7-yl)methyl)-1H-benzimidazol-2-yl)-4-fluoro-3-piperidinamine]: the IC50 came to 217 nM.

As for `N[C@@H]1CN(c2nc3cc(F)c(F)cc3n2Cc2c(Cl)cccc2Cl)CC[C@H]1F` [Example 265, (3R,4R)-1-(1-(2,6-dichlorobenzyl)-5,6-difluoro-1H-benzimidazol-2-yl)-4-fluoro-3-piperidinamine], the IC50 was found to be 2860 nM.

Regarding `CN[C@H]1CCCN(c2nc3ccccc3n2CC(=O)N2CCC2)C1` [Example 266, 1-(1-azetidinyl)-2-(2-((3S)-3-(methylamino)-1-piperidinyl)-1H-benzimidazol-1-yl)ethanone], the IC50 turned out to be 15800 nM.
